ChEMBL document CHEMBL1134828, “The synthesis of cyclic tetrapeptoid analogues of the antiprotozoal natural product apicidin” (2001)
≈ marks a conversion by molar mass, not a printed value.

How the values were obtained:
Leishmania donovani [1] = assay: Effective dose required for antiprotozoal activity against Leishmania donovani; format: functional; settings: read-out: ED50
Plasmodium falciparum = assay: Effective dose for antimalarial activity against Plasmodium falciparum; format: functional; settings: read-out: ED50
Trypanosoma brucei = assay: Effective dose required for antiprotozoal activity against Trypanosoma brucei; format: functional; settings: read-out: ED50
Trypanosoma cruzi [2] = assay: Effective dose required for antiprotozoal activity against Trypanosoma cruzi; format: functional; settings: read-out: ED50
[3] = Cytotoxicity tested against KB cells of human nasopharyngeal epithelial cell line; format: functional; settings: read-out: ED50 (the source's name)
Trypanosoma cruzi [4] = assay: Effective dose required for antiprotozoal activity against Trypanosoma cruzi; T: Toxicity to both mouse macrophage host cells and intracellular parasites prevented determination of antiprotozoal activity; format: functional, organism-based
Leishmania donovani [5] = assay: Effective dose required for antiprotozoal activity against Leishmania donovani; T: Toxicity to both mouse macrophage host cells and intracellular parasites prevented determination of antiprotozoal activity; format: functional, organism-based

SMILES | EC50 (Leishmania donovani [1]) [µg/mL] | EC50 (Plasmodium falciparum) [µg/mL] | EC50 (Trypanosoma brucei) [µg/mL] | EC50 (Trypanosoma cruzi [2]) [µg/mL] | EC50 [3] [µg/mL] | ED50 (Trypanosoma cruzi [4]) | ED50 (Leishmania donovani [5])
CCC(=O)CCCCC[C@@H]1NC(=O)[C@H]2CCCN2C(=O)[C@H]([C@@H](C)CC)NC[C@H](Cc2c[nH]c3ccccc23)NC1=O | > 30 | > 1 | 11.1 (≈ 19.6 µM) | > 30 |  |  | 
CCC(=O)CCCCC[C@@H]1NC(=O)[C@H]2CCCN2C(=O)[C@H]([C@@H](C)CC)N(C(C)=O)C[C@H](Cc2c[nH]c3ccccc23)NC1=O | > 30 | > 1 | 13 (≈ 21.3 µM) | > 30 |  |  | 
CCC(=O)CCCCC[C@@H]1NC(=O)[C@H]2CCCCN2C(=O)[C@H]([C@@H](C)CC)NC(=O)[C@H](Cc2cn(OC)c3ccccc23)NC1=O [APICIDIN] |  | 0.22 (≈ 0.353 µM) | 1.9 (≈ 3.05 µM) |  | 200 (≈ 321 µM) | Toxic | Toxic
